According to US20230414839A1, “COATED MEDICAL PRODUCT” (HEMOTEQ AG, priority 2020, published 2023):

How the values were obtained:
[1] = preparation and stability of crystal suspensions of microcrystalline rapamycin / everolimus in solutions of different tri-O-acylglycerols (Examples 2, 3); settings: ethyl acetate/heptane solution; standing and temperature elevation
Description: In the first step, solutions of tri-O-acylglycerols were first prepared in a solvent mixture. Subsequently, the solutions were combined with microcrystals of rapamycin and everolimus to investigate which tri-O-acylglycerols could be used to obtain stable crystal suspensions. The composition of the solvents and solvent mixture varied depending on the active agent used. The solutions and solvent mixtures prepared in the example apply to rapamycin (SIR) and everolimus (EVR). For the preparation of the solutions, an ethyl acetate/heptane solvent mixture was used here as an example.
To prepare the solutions, 770 mg of the respective tri-O-acylglycerol and optionally 150 mg BHT were dissolved in 14 g ethyl acetate (15.6 mL). Then, 57.4 g of n-heptane (84.4 mL) was added. Subsequently, homogenization and filtration were performed. The total volume of the solvent mixture is 100 mL.
To a precisely weighed amount of dry microcrystals of the previously prepared limus active agent, a defined amount of the solutions containing tri-O-acylglycerol and optionally antioxidant is carefully added. It was investigated whether the microcrystals of the limus active agent are not soluble in the solutions and whether suspensions are formed.
To check whether crystal suspension can be prepared, to each 200 mg of rapamycin in the form of microcrystals or 200 mg of everolimus in the form of microcrystals were carefully added 10 mL of one of the solutions 1a) to 1t) at room temperature. Three mixtures of 10 mL of solution for each solution were prepared. After combining, it was tested whether the microcrystals of limus active agents dissolved directly in the solutions. For solutions where there was no immediate dissolution of the microcrystals of the limus active agents, the suspensions of the solutions without antioxidant were allowed to stand for a period of 100 h and tested again to see if the microcrystals of the limus active agents dissolved.
Three mixtures of 10 mL of solution for each solution were prepared. After combining, it was tested whether the microcrystals of limus active agents dissolved directly in these solutions. For solutions where there was no immediate dissolution of the microcrystals of the limus active agents, the suspensions of the solutions without antioxidant were allowed to stand for a period of 100 hours and tested again to see if the microcrystals of the limus active agents dissolved.

[2] = cited from earlier work

CCCCCCCCC(=O)OCC(COC(=O)CCCCCCCC)OC(=O)CCCCCCCC [Trinonanoylglycerol, trinonanoylglycerol]
stability of the crystal suspension of microcrystalline everolimus and rapamycin with the tri-O-acylglycerol [1]: remained stable after 24-48 hours and under temperature elevation | solubility in water [2]: practically insoluble in water
